Measurements published in patent US20260317304A1, “TEAD INHIBITORS AND METHODS OF USE” (Sporos BioDiscovery, Inc., priority 2022, published 2026).

How the values were obtained:
SDM103T2 cells = assay: SDM103T2 proliferation and cell viability assay (CTG); format: cell-based; details: 144 hours
Protocol: SDM103T2 cells were trypsinised, counted and plated at 800 cells/well in 200 μl of growth media in 96 well flat bottom tissue culture treated plates. The plated cells were incubated overnight at 37° C., 5% CO2 before being treated with compounds in triplicate for each assay point. 50 μl of the serially diluted compound was added to each well giving a final DMSO concentration of 0.5% per well and a total volume of 250 μl per well. The treated cells were incubated for 144 hours (6 days) at 37° C., 5% CO2. Following compound treatment the remaining viable cells were detected using the Promega CellTiter-Glo 2.0 assay as follows: 150 μl of media was removed from each of the wells to be assayed and 100 μl of room temperature CellTiter-Glo 2.0 reagent was added. The plate was placed on an orbital shaker at 500 rpm at room temperature for 2 minutes, and then incubated without shaking for a further 10 minutes at room temperature. 150 μl of cell lysate was removed from each well and dispensed into a single well of a white opaque 96 well plate. Luminescence at 545 nm was read using a BMG CLARIOstar plate reader. The luminescent signal was directly proportional to number of viable cells, the percent of viable cells relative to the DMSO control was then calculated for each assay point. Percent viability relative to DMSO control was plotted against compound concentration and a curve fitted with non-linear regression in GraphPad Prism software. EC50 and absolute IC50 values were calculated using GraphPad Prism software as follows: For EC50 values a non-constrained four-parameter logistic curve fit was used (Sigmoidal, 4PL, X is concentration). For Absolute IC50 values the baseline was constrained to Y=0 and top at 100 (Absolute IC50, X is concentration). Area Under the Curve (AUC): Prism computes area-under-the-curve by the trapezoidal method. The analysis sees a fitted curve as simply a series of connected XY points. Prism simply computes the area under the “curve” defined by connecting the points by straight lines. The units of the AUC are the units of the Y axis times units of the X axis.
For EC50 data, the symbol “A” indicates a value of less than 0.2 μM; the symbol “B” indicates a value in the range of from 0.2 μM up to 1 μM; and the symbol “C” indicates a value of greater than 1 μM.

MSTO-211H xenograft = assay: Mouse xenograft MSTO-211H tumors, study part 1; format: in vivo, BALB/c nude mice; details: PO; for Tumor size (mean ± SEM) / T/C / TGI: BID; for Tumor Volume (mean ± SEM): BID (Table 16)
Source text: This study evaluated the in vivo anti-tumor efficacy of test compounds in BALB/c nude mice for treatment of MSTO-211H xenograft of lung cancer.
• Species: Mus Musculus • Strain: BALB/c nude • Age: 6-8 weeks • Sex: female • Body weight: 18-22 g • Number of animals inoculated with tumor: 80 mice • Number of animals enrolled in the treatment: 36 mice • Number of unenrolled animals: 44 mice • Animal supplier: Beijing Vital River Biotechnology Experimental Animal Co. Ltd Certification number: 20170011010591
The MSTO-211H tumor cells were maintained in RPMI 1640 medium supplemented with 10% Fetal bovine serum and 1% Antibiotic-Antimycotic at 37° C. in an atmosphere of 5% CO2 in air. The tumor cells were routinely subcultured twice weekly by trypsin-EDTA. The cells growing in an exponential growth phase with 95% cell survival or above were harvested, and counted for tumor inoculation.
Each mouse was inoculated subcutaneously at the right flank with MSTO-211H tumor cells (5×10^6+50% matrigel/0.2 mL) for tumor development. Animals were marked with earrings with unique 6 significant figure number for identification. The treatments of part 1 were started on day 5 after cell inoculation when the average tumor volume reached 181 mm^3. The treatments of part 2 were started on day 16 after cell inoculation when the average tumor volume reached 254 mm^3. The treatments of part 3 were started on day 33 after cell inoculation when the average tumor volume reached 969 mm^3.
The major endpoint was to determine if the tumor growth could be delayed. Tumor volume was measured twice a week in two dimensions using a caliper, and the volume was expressed in mm^3 using the formula: V=0.5 a×b^2 where a and b are the long and short diameters of the tumor, respectively. The tumor size was then used for calculations of T/C value. The TGI value (in percent) or the T/C value (in percent) is an indication of antitumor effectiveness; T and C are the mean tumor volumes or tumor weights of the treated and control groups, respectively, on a given day.
TGI was calculated for each group using the formula: TGI (%)=[1−(Ti−T0)/(Vi−V0)]×100; Ti is the average tumor volume of a treatment group on a given day, T0 is the average tumor volume of the treatment group on the day of treatment start, Vi is the average tumor volume of the vehicle control group on the same day with Ti, and V0 is the average tumor volume of the vehicle group on the day of treatment start.
Relative T/C (%)=TRTV/CRTV×100 (RTV (%)=Vt/V0×100, Vt is the average tumor volume on a given day, V0 is the average tumor volume on the first day of treatment. TRTV is the RTV of a treatment group, and the CRTV is the RTV of the vehicle control group.)
The antitumor effectiveness of part 1 study was analyzed on PG-D31 when vehicle group reached 681 mm^3.
Summary statistics, including mean and the standard error of the mean (SEM), were provided for the tumor volume of each group at each time point.
Statistical analysis of difference in tumor volume among the groups was conducted on the data obtained at the end of the study.
One-tailed T test was performed to compare tumor volumes between two groups. All data are analyzed using GraphPad Prism 6.0. p<0.05 is considered to be statistically significant.

Row | SMILES | EC50 (SDM103T2 cells) [nM] | Tumor size (mean ± SEM) (MSTO-211H xenograft; part 1, day 0, 12.5 mg/kg) [mm^3] | Tumor size (mean ± SEM) (MSTO-211H xenograft; part 1, day 3, 12.5 mg/kg) [mm^3] | Tumor size (mean ± SEM) (MSTO-211H xenograft; part 1, day 6, 12.5 mg/kg) [mm^3] | Tumor size (mean ± SEM) (MSTO-211H xenograft; part 1, day 10, 12.5 mg/kg) [mm^3] | Tumor size (mean ± SEM) (MSTO-211H xenograft; part 1, day 13, 12.5 mg/kg) [mm^3] | Tumor size (mean ± SEM) (MSTO-211H xenograft; part 1, day 17, 12.5 mg/kg) [mm^3] | Tumor size (mean ± SEM) (MSTO-211H xenograft; part 1, day 20, 12.5 mg/kg) [mm^3] | Tumor size (mean ± SEM) (MSTO-211H xenograft; part 1, day 23, 12.5 mg/kg) [mm^3] | Tumor size (mean ± SEM) (MSTO-211H xenograft; part 1, day 27, 12.5 mg/kg) [mm^3] | T/C (MSTO-211H xenograft; part 1, day 31, 12.5 mg/kg) [%] | TGI (MSTO-211H xenograft; part 1, day 31, 12.5 mg/kg) [%] | Tumor size (mean ± SEM) (MSTO-211H xenograft; part 1, day 31, 12.5 mg/kg) [mm^3] | Tumor Volume (mean ± SEM) (MSTO-211H xenograft; part 1, day 31, 12.5 mg/kg) [mm^3]
1 | Cn1nnc(-c2cc([C@]3(C)CCNC3=O)ccc2Nc2ccc(C(F)(F)F)cc2)n1 (stereo in doubt) [Compound 20, 3-methyl-3-(3-(2-methyl-2H-tetrazol-5-yl)-4-((4-(trifluoromethyl)phenyl)amino)phenyl) pyrrolidin-2-one] | < 200 | 181 ± 7 | 183 ± 26 | 188 ± 52 | 117 ± 44 | 92 ± 28 | 66 ± 10 | 60 ± 13 | 59 ± 16 | 75 ± 18 | 8.81 | 124.25 | 60 ± 11 | 60 ± 11
2 | FC(F)(F)c1ccc(CN2CCC(C3CC(Br)=NO3)CC2)cc1 (centres unmarked) [Compound 1-2, reference compound] | > 1000 | – | – | – | – | – | – | – | – | – | – | – | – | –
3 | Cn1cnc(-c2cc(C3(C)NC(=O)NC3=O)ccc2Nc2ccc(C(F)(F)F)cc2)c1 (single isomer, unassigned) [Compound 15, 5-methyl-5-(3-(1-methyl-1H-imidazol-4-yl)-4-((4-(trifluoromethyl)phenyl)amino)phenyl)imidazolidine-2,4-dione] | < 200 | 181 ± 11 | 216 ± 27 | 175 ± 19 | 154 ± 5 | 111 ± 13 | 88 ± 12 | 105 ± 6 | 134 ± 10 | 166 ± 20 | 23.57 | 104.12 | 161 ± 12 | 161 ± 12
4 | Cn1cnc(-c2cc([C@@]3(C)CCNC3=O)ccc2Nc2ccc(C(F)(F)F)cc2)c1 (single isomer, unassigned) [Compound 5, 3-methyl-3-(3-(1-methyl-1H-imidazol-4-yl)-4-((4-(trifluoromethyl)phenyl)amino)phenyl)pyrrolidin-2-one] | < 200 | 181 ± 11 | 241 ± 31 | 230 ± 30 | 151 ± 18 | 117 ± 10 | 63 ± 13 | 72 ± 15 | 64 ± 7 | 79 ± 13 | 11.82 | 120.17 | 81 ± 18 | 81 ± 18
5 | C=CC(=O)Nc1ccc(C)c(Oc2ccc(Cl)cc2)c1 [Compound 1-3, reference compound] | < 200 | – | – | – | – | – | – | – | – | – | – | – | – | –
